Laboratory results taken from the Kinase Knowledgebase extract (Sharma et al. 2016).

Target: PIK3CG (human) (UniProt P48736)
Test: Inhibition of PIK3CG Kinase Activity

Chain of PIK3CG (human) (P48736 whole entry, looked up): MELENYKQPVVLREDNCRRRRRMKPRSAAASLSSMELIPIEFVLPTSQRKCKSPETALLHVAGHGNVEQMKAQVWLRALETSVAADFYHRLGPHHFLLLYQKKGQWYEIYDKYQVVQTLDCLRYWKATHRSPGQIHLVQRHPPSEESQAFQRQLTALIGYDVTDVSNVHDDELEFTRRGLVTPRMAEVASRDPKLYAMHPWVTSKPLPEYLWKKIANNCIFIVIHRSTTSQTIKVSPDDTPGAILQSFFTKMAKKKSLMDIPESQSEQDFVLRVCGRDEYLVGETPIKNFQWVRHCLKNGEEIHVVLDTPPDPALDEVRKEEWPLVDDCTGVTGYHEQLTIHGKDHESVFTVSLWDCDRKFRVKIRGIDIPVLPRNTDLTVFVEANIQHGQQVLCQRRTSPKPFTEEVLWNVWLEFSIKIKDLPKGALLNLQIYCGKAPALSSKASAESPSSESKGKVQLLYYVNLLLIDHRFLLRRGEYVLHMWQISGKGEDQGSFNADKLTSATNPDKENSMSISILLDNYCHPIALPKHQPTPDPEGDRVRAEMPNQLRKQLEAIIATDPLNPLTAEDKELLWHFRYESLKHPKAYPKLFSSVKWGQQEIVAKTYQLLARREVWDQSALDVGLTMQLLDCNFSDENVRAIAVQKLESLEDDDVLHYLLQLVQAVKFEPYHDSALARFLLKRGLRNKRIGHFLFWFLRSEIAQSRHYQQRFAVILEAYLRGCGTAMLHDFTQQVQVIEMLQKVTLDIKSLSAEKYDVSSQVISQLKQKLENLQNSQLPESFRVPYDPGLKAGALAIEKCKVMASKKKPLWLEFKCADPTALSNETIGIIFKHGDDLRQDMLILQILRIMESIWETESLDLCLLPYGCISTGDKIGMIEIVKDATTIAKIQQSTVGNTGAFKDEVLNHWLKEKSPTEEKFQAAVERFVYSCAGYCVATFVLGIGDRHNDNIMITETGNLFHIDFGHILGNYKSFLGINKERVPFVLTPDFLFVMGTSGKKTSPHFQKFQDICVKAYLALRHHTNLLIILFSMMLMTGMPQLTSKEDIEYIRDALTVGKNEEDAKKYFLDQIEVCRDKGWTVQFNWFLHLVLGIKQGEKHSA

| SMILES | IC50 [nM] |
| --- | --- |
| CC(=O)Nc1nc2c(s1)-c1c(c(C3CC3)nn1-c1ccc(C(=O)N[C@H]3CC[C@@H](N(C)CC4CC4)CC3)c(F)c1)CC2 | < 600 |
| CC(=O)Nc1nc2c(s1)-c1c(c(C3CC3)nn1-c1ccc(C(=O)N[C@H]3CCN(CC4CCCC4)C3)cc1F)CC2 | < 600 |
| CC(=O)Nc1nc2c(s1)-c1c(c(C3CC3)nn1-c1ccc(C(=O)N(C)[C@H]3CC[C@@H](N(C)CC4CCCC4)CC3)cc1Cl)CC2 | < 600 |
| CC(=O)Nc1nc2c(s1)-c1c(c(C3CC3)nn1-c1ccc(C(=O)NC3CCN(CC4CCCC4)CC3)c(F)c1)CC2 | < 600 |
| CCCN1CCC(NC(=O)c2ccc(-n3nc(C4CC4)c4c3-c3sc(NC(C)=O)nc3CC4)c(C)c2)CC1 | < 600 |
| CCCN1CCC(NC(=O)c2ccc(-n3nc(C4CCCC4)c4c3-c3sc(NC(C)=O)nc3CC4)c(Cl)c2)CC1 | < 600 |
| CC(=O)Nc1nc2c(s1)-c1c(c(C3CC3)nn1-c1ccc(C(=O)N(C)C)cc1Cl)CC2 | < 600 |
| CC(=O)Nc1nc2c(s1)-c1c(c(C3CC3)nn1-c1ccc(C(=O)NC3CCN(C4CCCCC4)CC3)cc1C)CC2 | < 600 |
| CC(=O)Nc1nc2c(s1)-c1c(c(C3CC3)nn1-c1ccc(C(=O)N[C@H]3CC[C@@H](N(C)CC4CCCC4)CC3)c(F)c1)CC2 | < 600 |
| CC(=O)Nc1nc2c(s1)-c1c(c(C3CCCC3)nn1-c1ccc(C(=O)NC3CCN(C4CCCC4)CC3)cc1Cl)CC2 | < 600 |
| CC(=O)Nc1nc2c(s1)-c1c(c(C3(C)CC3)nn1-c1ccc(C(=O)NC3CCN(C4CCOCC4)CC3)cc1Cl)CC2 | < 600 |
| CC(=O)Nc1nc2c(s1)-c1c(c(C3CC3)nn1-c1ccc(C(=O)N(C)C3CCN(C4CCCC4)CC3)c(C)c1)CC2 | < 600 |
| CC(=O)Nc1nc2c(s1)-c1c(c(C3CC3)nn1-c1ccc(C(=O)N[C@@H]3CCN(CC4CCCC4)C3)cc1C)CC2 | < 600 |
| CC(=O)Nc1nc2c(s1)-c1c(c(C3CC3)nn1-c1ccc(NCC3CCNCC3)cc1Cl)CC2 | < 600 |
| CC(=O)Nc1nc2c(s1)-c1c(c(C3CC3)nn1-c1ccc(C(=O)NC[C@H]3CCN(CC4CCCC4)C3)c(Cl)c1)CC2 | < 600 |
| CC(=O)Nc1nc2c(s1)-c1c(c(C3CC3)nn1-c1ccc(C(=O)N[C@H]3CC[C@@H](N(C)CC4CCCC4)CC3)c(C)c1)CC2 | < 600 |
| CC(=O)Nc1nc2c(s1)-c1c(c(C3CC3)nn1-c1ccc(C(=O)NC3CCN(CC4CCCCC4)CC3)c(Cl)c1)CC2 | < 600 |
| CC(=O)Nc1nc2c(s1)-c1c(c(C3CC3)nn1-c1ccc(C(=O)N[C@H]3CC[C@@H](N(C)CC4CCCC4)CC3)c(Cl)c1)CC2 | < 600 |
| CC(=O)Nc1nc2c(s1)-c1c(c(C3CC3)nn1-c1ccc(C(=O)N(C)[C@@H]3CCN(CC4CCCC4)C3)c(F)c1)CC2 | < 600 |
| CC(=O)Nc1nc2c(s1)-c1c(c(C3CC3)nn1-c1ccc(C(=O)N[C@@H]3CCN(CC4CCCC4)C3)c(Cl)c1)CC2 | < 600 |
| CC(=O)Nc1nc2c(s1)-c1c(c(C3CCC3)nn1-c1ccc(C(=O)NC3CCN(C(C)C)CC3)cc1Cl)CC2 | < 600 |

| SMILES | IC50 [nM] |
| --- | --- |
| CCCN1CC[C@@H](NC(=O)c2ccc(-n3nc(C4CC4)c4c3-c3sc(NC(C)=O)nc3CC4)c(Cl)c2)C1 | < 600 |
| CCCN1CC[C@@H](NC(=O)c2ccc(-n3nc(C4CC4)c4c3-c3sc(NC(C)=O)nc3CC4)c(F)c2)C1 | < 600 |
| CC(=O)Nc1nc2c(s1)-c1c(c(C3CC3)nn1-c1ccc(C(=O)N[C@@H]3CCN(CC4CCCC4)C3)cc1Cl)CC2 | < 600 |
| CC(=O)Nc1nc2c(s1)-c1c(c(C3CC3)nn1-c1ccc(C(=O)N3CCC(CN4CCCC4)CC3)c(Cl)c1)CC2 | < 600 |
| CC(=O)Nc1nc2c(s1)-c1c(c(C3CC3)nn1-c1ccc(C(=O)N[C@H]3CC[C@@H](N(C)CC4CCCC4)CC3)cc1C)CC2 | < 600 |
| CC(=O)Nc1nc2c(s1)-c1c(c(C3CC3)nn1-c1ccc(C(=O)N(C)CC3CCN(C4CCCC4)CC3)c(Cl)c1)CC2 | < 600 |
| CC(=O)Nc1nc2c(s1)-c1c(c(C3CC3)nn1-c1ccc(C(=O)NC3CCN(C4CCOCC4)CC3)c(C)c1)CC2 | < 600 |
| CC(=O)Nc1nc2c(s1)-c1c(c(C3CC3)nn1-c1ccc(C(=O)N[C@H]3CC[C@@H](N(C)CC4CCCC4)CC3)cc1Cl)CC2 | < 600 |
| CC(=O)Nc1nc2c(s1)-c1c(c(C3CC3)nn1-c1ccc(C(=O)N3CCC(N(C)C4CCCC4)CC3)c(Cl)c1)CC2 | < 600 |
| CC(=O)Nc1nc2c(s1)-c1c(c(C3CC3)nn1-c1ccc(C(=O)N(C)[C@@H]3CCN(C4CCCC4)C3)c(F)c1)CC2 | < 600 |
| CC(=O)Nc1nc2c(s1)-c1c(c(C3CC3)nn1-c1ccc(C(=O)N(C)CC3CCN(C4CCCC4)CC3)cc1Cl)CC2 | < 600 |
| COc1cc(-n2nc(C3CC3)c3c2-c2sc(NC(C)=O)nc2CC3)ccc1C(=O)N1CCC(N(C)C2CCCC2)CC1 | < 600 |
| CC(=O)Nc1nc2c(s1)-c1c(c(C3CC3)nn1-c1ccc(C(=O)N[C@@H]3CCN(C4CCCCC4)C3)c(C)c1)CC2 | < 600 |
| CC(=O)Nc1nc2c(s1)-c1c(c(C3(C)CC3)nn1-c1ccc(C(=O)N[C@H]3CC[C@@H](N4CCCCC4)CC3)cc1Cl)CC2 | < 600 |
| CC(=O)Nc1nc2c(s1)-c1c(c(C3CC3)nn1-c1ccc(C(=O)N(C)[C@H]3CC[C@@H](N(C)CC4CC4)CC3)cc1Cl)CC2 | < 600 |
| CC(=O)Nc1nc2c(s1)-c1c(c(C3CC3)nn1-c1ccc(C(=O)N3CC[C@H](CN4CCCC4)C3)cc1Cl)CC2 | < 600 |
| CC(=O)Nc1nc2c(s1)-c1c(c(C3(C)CC3)nn1-c1ccc(C(=O)NC3CCN(C4CCCC4)CC3)cc1Cl)CC2 | < 600 |
| CCCN1CCC(CNc2ccc(-n3nc(C4CC4)c4c3-c3sc(NC(C)=O)nc3CC4)c(Cl)c2)CC1 | < 600 |
| CC(=O)Nc1nc2c(s1)-c1c(c(C3CC3)nn1-c1ccc(C(=O)NC3CCN(C4CCOCC4)CC3)cc1F)CC2 | < 600 |
| CNC(=O)c1ccc(-n2nc(C3CCCC3)c3c2-c2sc(NC(C)=O)nc2CC3)c(Cl)c1 | < 600 |
| CC(=O)Nc1nc2c(s1)-c1c(c(C3CC3)nn1-c1ccc(C(=O)N(C)[C@H]3CC[C@@H](N(C)CC4CCCC4)CC3)cc1F)CC2 | < 600 |

Continued, values first:

| IC50 [nM] | SMILES |
| --- | --- |
| < 600 | CC(=O)Nc1nc2c(s1)-c1c(c(C3CC3)nn1-c1ccc(C(=O)N[C@H]3CC[C@@H](N4CCCC4)CC3)cc1C)CC2 |
| < 600 | CC(=O)Nc1nc2c(s1)-c1c(c(C3CC3)nn1-c1ccc(C(=O)N(C)[C@H]3CC[C@@H](N4CCCC4)CC3)cc1F)CC2 |
| < 600 | CC(=O)Nc1nc2c(s1)-c1c(c(C3CC3)nn1C1CCN(C(=O)C3CCN(C4CCCC4)CC3)CC1)CC2 |
| < 600 | CC(=O)Nc1nc2c(s1)-c1c(c(C3CC3)nn1-c1ccc(N)cc1Cl)CC2 |
| < 600 | CC(=O)Nc1nc2c(s1)-c1c(c(C3CC3)nn1C1CCN(C(=O)[C@H]3CC[C@@H](N4CCCC4)CC3)CC1)CC2 |
| < 600 | CC(=O)Nc1nc2c(s1)-c1c(c(C3CC3)nn1-c1ccc(C(=O)N[C@H]3CC[C@H](C(N)=O)CC3)cc1Cl)CC2 |
| < 600 | CC(=O)Nc1nc2c(s1)-c1c(c(C3CC3)nn1-c1ccc(C(=O)N[C@H]3CC[C@@H](N4CCOCC4)CC3)c(F)c1)CC2 |
| < 600 | CC(=O)Nc1nc2c(s1)-c1c(c(C3CC3)nn1-c1ccc(C(=O)NC3CCN(C4CCCCC4)CC3)cc1Cl)CC2 |
| < 600 | CC(=O)Nc1nc2c(s1)-c1c(c(C3CC3)nn1-c1ccc(C(=O)N[C@H]3CC[C@@H](N4CCCC4)CC3)cc1Cl)CC2 |
| < 600 | CC(=O)Nc1nc2c(s1)-c1c(c(C3CC3)nn1-c1ccccc1)CC2 |
| < 600 | CC(=O)Nc1nc2c(s1)-c1c(c(C3CC3)nn1-c1ccc(C(=O)NC3CCN(C4CCCCC4)CC3)c(Cl)c1)CC2 |
| < 600 | COc1cc(-n2nc(C3CC3)c3c2-c2sc(NC(C)=O)nc2CC3)ccc1C(=O)N(C)C1CCC(N2CCCC2)CC1 (centres undefined) |
| < 600 | CC(=O)Nc1nc2c(s1)-c1c(c(C3CC3)nn1-c1ccc(C(=O)N[C@@H]3CCN(C4CCCCC4)C3)c(Cl)c1)CC2 |
| < 600 | CC(=O)Nc1nc2c(s1)-c1c(c(C3CC3)nn1-c1ccc(C(=O)NC3CCN(C4CCCC4)CC3)c(C)c1)CC2 |
| < 600 | CC(=O)Nc1nc2c(s1)-c1c(c(C3CC3)nn1-c1ccc(NC(=O)C3CCN(C4CCCC4)CC3)cc1Cl)CC2 |
| < 600 | CC(=O)Nc1nc2c(s1)-c1c(c(C3CC3)nn1-c1ccc(C(=O)NC[C@H]3CCCN3C3CCCC3)c(Cl)c1)CC2 |

| IC50 [nM] | SMILES |
| --- | --- |
| < 600 | CC(=O)Nc1nc2c(s1)-c1c(c(C3CC3)nn1-c1ccc(C(=O)N[C@@H]3CCN(C4CCCC4)C3)c(F)c1)CC2 |
| < 600 | CC(=O)Nc1nc2c(s1)-c1c(c(C3CC3)nn1C1CCC(C(N)=O)CC1)CC2 (centres undefined) |
| < 600 | CC(=O)Nc1nc2c(s1)-c1c(c(C3CC3)nn1-c1ccc(C(=O)N[C@H]3CC[C@@H](N4CCOCC4)CC3)cc1F)CC2 |
| < 600 | CC(=O)Nc1nc2c(s1)-c1c(c(C3CC3)nn1-c1ccc(C(=O)N[C@@H]3CCN(C4CCCC4)C3)c(Cl)c1)CC2 |
| < 600 | CC(=O)Nc1nc2c(s1)-c1c(c(C3CC3)nn1-c1ccc(C(=O)N[C@H]3CC[C@@H](N4CCCCC4)CC3)cc1Cl)CC2 |
| < 600 | CC(=O)Nc1nc2c(s1)-c1c(c(C3CC3)nn1-c1ccc(C(N)=O)cc1Cl)CC2 |
| < 600 | CC(=O)Nc1nc2c(s1)-c1c(c(C3CC3)nn1-c1ccc(N)c(Cl)c1)CC2 |
| < 600 | CCCN1CCC(C(=O)N(C)c2ccc(-n3nc(C4CC4)c4c3-c3sc(NC(C)=O)nc3CC4)c(Cl)c2)CC1 |
| < 600 | CC(=O)Nc1nc2c(s1)-c1c(c(C3CC3)nn1-c1ccc(CC(=O)N[C@@H]3CCN(C4CCCC4)C3)cc1Cl)CC2 |
| < 600 | CC(=O)Nc1nc2c(s1)-c1c(c(C3CC3)nn1-c1ccc(C(=O)N(C)[C@H]3CC[C@@H](N4CCCCC4)CC3)c(Cl)c1)CC2 |
| < 600 | CC(=O)Nc1nc2c(s1)-c1c(c(C3CC3)nn1-c1ccc(C(=O)N[C@H]3CC[C@@H](N4CCCC4)CC3)c(Cl)c1)CC2 |
| < 600 | CC(=O)Nc1nc2c(s1)-c1c(c(C3CC3)nn1-c1ccc(C(=O)NC[C@H]3CCNC3)c(Cl)c1)CC2 |
| < 600 | CC(=O)Nc1nc2c(s1)-c1c(c(C3CC3)nn1-c1ccc(C(=O)N[C@H]3CC[C@@H](N(C)CC4CC4)CC3)c(Cl)c1)CC2 |
| < 600 | CC(=O)Nc1nc2c(s1)-c1c(c(C3CC3)nn1-c1ccc(C(=O)NC[C@@H]3CCCN3)c(Cl)c1)CC2 |
| < 600 | CC(=O)Nc1nc2c(s1)-c1c(c(C3CC3)nn1-c1ccc(C(=O)N[C@H]3CCN(C4CCCC4)C3)c(Cl)c1)CC2 |
| < 600 | CC(=O)Nc1nc2c(s1)-c1c(c(C3CCC3)nn1-c1ccc(C(=O)N[C@H]3CC[C@@H](N4CCCC4)CC3)cc1Cl)CC2 |
